{"source": "ChEMBL document CHEMBL5050844", "about": "(2019)", "key": {"[1]": {"assay": "Induction of anti-CD3 antibodies-stimulated human T cell activation at 8 uM assessed fold increase in CD25 expression measured by ELISA assay; further: reference of the scale not given here", "type": "functional, T cell line"}, "[2]": {"target": "T1, E3 ubiquitin-protein ligase CBL-B (Homo sapiens, UniProt Q13191)", "T1 sequence (Q13191 whole entry, the tested form may be a part)": "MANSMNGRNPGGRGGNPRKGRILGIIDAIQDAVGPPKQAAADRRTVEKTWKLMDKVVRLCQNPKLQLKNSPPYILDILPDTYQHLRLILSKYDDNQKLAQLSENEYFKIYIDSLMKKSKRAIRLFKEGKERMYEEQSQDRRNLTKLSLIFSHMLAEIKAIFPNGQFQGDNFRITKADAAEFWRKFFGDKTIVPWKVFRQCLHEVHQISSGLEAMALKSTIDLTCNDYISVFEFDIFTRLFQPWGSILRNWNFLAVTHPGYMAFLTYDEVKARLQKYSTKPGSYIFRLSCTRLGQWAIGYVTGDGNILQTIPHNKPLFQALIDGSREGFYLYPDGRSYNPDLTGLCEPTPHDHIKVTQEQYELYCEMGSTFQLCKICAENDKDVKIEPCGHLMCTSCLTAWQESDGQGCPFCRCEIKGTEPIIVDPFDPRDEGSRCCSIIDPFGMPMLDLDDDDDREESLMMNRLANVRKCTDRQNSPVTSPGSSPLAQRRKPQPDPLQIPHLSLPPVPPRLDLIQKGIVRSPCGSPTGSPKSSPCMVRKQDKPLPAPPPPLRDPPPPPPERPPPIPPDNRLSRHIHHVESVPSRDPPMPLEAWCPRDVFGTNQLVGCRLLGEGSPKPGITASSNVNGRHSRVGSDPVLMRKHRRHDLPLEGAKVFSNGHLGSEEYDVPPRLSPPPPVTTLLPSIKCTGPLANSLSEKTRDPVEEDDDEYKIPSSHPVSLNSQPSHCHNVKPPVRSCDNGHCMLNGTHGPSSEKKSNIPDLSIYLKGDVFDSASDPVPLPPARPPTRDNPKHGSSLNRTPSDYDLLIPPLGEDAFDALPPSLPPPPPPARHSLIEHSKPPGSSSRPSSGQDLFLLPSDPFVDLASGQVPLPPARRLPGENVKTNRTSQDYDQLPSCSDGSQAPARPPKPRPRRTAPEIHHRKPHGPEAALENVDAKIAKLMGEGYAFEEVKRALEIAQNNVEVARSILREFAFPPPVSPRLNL", "assay": "Binding affinity towards N-terminal biotinylated Avi-tagged human CBL-B (36 to 427 residues) measured by surface plasmon resonance assay"}, "[3]": {"assay": "Induction of anti-CD3 antibodies-stimulated human T cell activation at 1 uM assessed fold increase in CD25 expression measured by ELISA assay; further: reference of the scale not given here", "type": "functional, T cell line"}, "[4]": {"assay": "Induction of anti-CD3/CD28 antibodies-stimulated human T cell activation at 1 uM assessed fold increase in CD25 expression measured by ELISA assay", "type": "functional, T cell line"}, "[5]": {"assay": "Induction of activation of human CD56+ CD3- NK cells co-cultured with human K562 cells in 5:1 ratio and assessed as increase in IFN-gamma secretion at 10 uM measured by ELISA assay", "type": "functional, Natural killer cell"}, "[6]": {"assay": "Induction of anti-CD3 antibodies-stimulated human CD4+ T cell activation in immunocompetent mouse assessed fold increase in CD25 expression at 45 mg/kg, po administered twice a day; further: reference of the scale not given here", "type": "functional"}, "[7]": {"assay": "Induction of anti-CD3 antibodies-stimulated human CD8+ T cell activation in immunocompetent mouse assessed fold increase in CD25 expression at 135 mg/kg, po administered twice a day; further: reference of the scale not given here", "type": "functional"}, "[8]": {"assay": "Induction of anti-CD3 antibodies-stimulated human CD8+ T cell activation in immunocompetent mouse assessed fold increase in CD25 expression at 180 mg/kg, po administered twice a day; further: reference of the scale not given here", "type": "functional"}, "[9]": {"assay": "Induction of activation of human CD56+ CD3- NK cells co-cultured with human K562 cells in 5:1 ratio and assessed as increase in TNF-alpha secretion at 1 uM measured by ELISA assay", "type": "functional, Natural killer cell"}, "[10]": {"assay": "Induction of anti-CD3 antibodies-stimulated human T cell activation at 8 uM assessed fold increase in IL-2 secretion measured by ELISA assay; further: reference of the scale not given here", "type": "functional, T cell line"}, "[11]": {"assay": "Induction of activation of human CD56+ CD3- NK cells co-cultured with human K562 cells in 5:1 ratio and assessed as increase in MIP1beta secretion at 1 uM measured by ELISA assay", "type": "functional, Natural killer cell"}, "[12]": {"assay": "Induction of activation of human CD56+ CD3- NK cells co-cultured with human K562 cells in 1:1 ratio and assessed as increase in MIP1beta secretion at 1 uM measured by ELISA assay", "type": "functional, Natural killer cell"}, "[13]": {"assay": "Induction of activation of human CD56+ CD3- NK cells co-cultured with human K562 cells in 1:1 ratio and assessed as increase in IFN-gamma secretion at 1 uM measured by ELISA assay", "type": "functional, Natural killer cell"}, "[14]": {"assay": "Induction of activation of human CD56+ CD3- NK cells co-cultured with human K562 cells in 1:1 ratio and assessed as increase in MIP1beta secretion at 10 uM measured by ELISA assay", "type": "functional, Natural killer cell"}, "[15]": {"assay": "Induction of anti-CD3 antibodies-stimulated human CD4+ T cell activation in immunocompetent mouse assessed fold increase in CD25 expression at 135 mg/kg, po administered twice a day; further: reference of the scale not given here", "type": "functional"}, "[16]": {"assay": "Induction of anti-CD3 antibodies-stimulated human T cell activation at 1 uM assessed fold increase in IL-2 secretion measured by ELISA assay; further: reference of the scale not given here", "type": "functional, T cell line"}, "[17]": {"assay": "Induction of activation of human CD56+ CD3- NK cells co-cultured with human K562 cells in 5:1 ratio and assessed as increase in MIP1beta secretion at 10 uM measured by ELISA assay", "type": "functional, Natural killer cell"}, "[18]": {"assay": "Induction of anti-CD3/CD28 antibodies-stimulated human T cell activation at 4 uM assessed fold increase in CD25 expression measured by ELISA assay", "type": "functional, T cell line"}, "[19]": {"assay": "Induction of activation of human CD56+ CD3- NK cells co-cultured with human K562 cells in 5:1 ratio and assessed as increase in TNF-alpha secretion at 10 uM measured by ELISA assay", "type": "functional, Natural killer cell"}, "[20]": {"target": "T1, E3 ubiquitin-protein ligase CBL-B", "assay": "Inhibition of N-terminal Avi-tagged human CBL-B (36 to 427 residues) incubated with 60 nM Src kinase for 1.5 hrs followed by incubation with fluorescently labeled UbcH5B-Ub for 1 hr and measured by TR-FRET assay", "type": "single protein"}, "[21]": {"assay": "Induction of activation of human CD56+ CD3- NK cells co-cultured with human K562 cells in 1:1 ratio and assessed as increase in TNF-alpha secretion at 1 uM measured by ELISA assay", "type": "functional, Natural killer cell"}, "[22]": {"assay": "Induction of anti-CD3/CD28 antibodies-stimulated human T cell activation at 4 uM assessed fold increase in IL-2 secretion measured by ELISA assay", "type": "functional, T cell line"}, "[23]": {"assay": "Induction of activation of human CD56+ CD3- NK cells co-cultured with human K562 cells in 1:1 ratio and assessed as increase in TNF-alpha secretion at 10 uM measured by ELISA assay", "type": "functional, Natural killer cell"}, "[24]": {"assay": "Induction of anti-CD3/CD28 antibodies-stimulated human T cell activation at 0.3 uM assessed fold increase in CD25 expression measured by ELISA assay", "type": "functional, T cell line"}, "[25]": {"assay": "Induction of activation of human CD56+ CD3- NK cells co-cultured with human K562 cells in 5:1 ratio and assessed as increase in IFN-gamma secretion at 1 uM measured by ELISA assay", "type": "functional, Natural killer cell"}, "[26]": {"assay": "Induction of activation of human CD56+ CD3- NK cells co-cultured with human K562 cells in 1:1 ratio and assessed as increase in IFN-gamma secretion at 10 uM measured by ELISA assay", "type": "functional, Natural killer cell"}, "[27]": {"assay": "Induction of anti-CD3 antibodies-stimulated human CD4+ T cell activation in immunocompetent mouse assessed fold increase in CD25 expression at 90 mg/kg, po administered twice a day; further: reference of the scale not given here", "type": "functional"}, "[28]": {"assay": "Induction of anti-CD3 antibodies-stimulated human CD4+ T cell activation in immunocompetent mouse assessed fold increase in CD25 expression at 180 mg/kg, po administered twice a day; further: reference of the scale not given here", "type": "functional"}, "[29]": {"assay": "Induction of anti-CD3 antibodies-stimulated human CD4+ T cell activation in immunocompetent mouse assessed fold increase in CD25 expression at 45 mg/kg, ip administered twice a day; further: reference of the scale not given here", "type": "functional"}, "[30]": {"assay": "Induction of anti-CD3 antibodies-stimulated human CD8+ T cell activation in immunocompetent mouse assessed fold increase in CD25 expression at 45 mg/kg, ip administered twice a day; further: reference of the scale not given here", "type": "functional"}, "[31]": {"assay": "Induction of anti-CD3 antibodies-stimulated human CD8+ T cell activation in immunocompetent mouse assessed fold increase in CD25 expression at 90 mg/kg, po administered twice a day; further: reference of the scale not given here", "type": "functional"}, "[32]": {"assay": "Induction of anti-CD3/CD28 antibodies-stimulated human T cell activation at 0.3 uM assessed fold increase in IL-2 secretion measured by ELISA assay", "type": "functional, T cell line"}, "[33]": {"assay": "Induction of anti-CD3/CD28 antibodies-stimulated human T cell activation at 1 uM assessed fold increase in IL-2 secretion measured by ELISA assay", "type": "functional, T cell line"}}}
{"smiles": "C[C@H](Cc1nncn1C)c1cccc(NC(=O)c2cc(C3CC3)cc(C(F)(F)F)n2)c1", "values": [{"measurement": "fold change (FC)", "setting": "[1]", "value": ">=1.001"}, {"measurement": "Kd", "setting": "[2]", "value": "< 100", "unit": "nM"}, {"measurement": "fold change (FC)", "setting": "[3]", "value": ">=1.001"}, {"measurement": "fold change (FC)", "setting": "[4]", "value": 1.51}, {"measurement": "fold change (FC)", "setting": "[5]", "value": ">=5"}, {"measurement": "fold change (FC)", "setting": "[6]", "value": 1}, {"measurement": "fold change (FC)", "setting": "[7]", "value": 1}, {"measurement": "fold change (FC)", "setting": "[8]", "value": 1}, {"measurement": "fold change (FC)", "setting": "[9]", "value": 2.01}, {"measurement": "fold change (FC)", "setting": "[10]", "value": ">=0.201"}, {"measurement": "fold change (FC)", "setting": "[11]", "value": 1.01}, {"measurement": "fold change (FC)", "setting": "[12]", "value": 1.01}, {"measurement": "fold change (FC)", "setting": "[13]", "value": 2.01}, {"measurement": "fold change (FC)", "setting": "[14]", "value": 1.01}, {"measurement": "fold change (FC)", "setting": "[15]", "value": 2.01}, {"measurement": "fold change (FC)", "setting": "[16]", "value": ">=0.201"}, {"measurement": "fold change (FC)", "setting": "[17]", "value": 1.01}, {"measurement": "fold change (FC)", "setting": "[18]", "value": 1.51}, {"measurement": "fold change (FC)", "setting": "[19]", "value": 2.01}, {"measurement": "IC50", "setting": "[20]", "value": "< 100", "unit": "nM"}, {"measurement": "fold change (FC)", "setting": "[21]", "value": 2.01}, {"measurement": "fold change (FC)", "setting": "[22]", "value": ">=7.5"}, {"measurement": "fold change (FC)", "setting": "[23]", "value": 1.01}, {"measurement": "fold change (FC)", "setting": "[24]", "value": 1.31}, {"measurement": "fold change (FC)", "setting": "[25]", "value": 2.01}, {"measurement": "fold change (FC)", "setting": "[26]", "value": 2.01}, {"measurement": "fold change (FC)", "setting": "[27]", "value": 1}, {"measurement": "fold change (FC)", "setting": "[28]", "value": 1}, {"measurement": "fold change (FC)", "setting": "[29]", "value": 1.51}, {"measurement": "fold change (FC)", "setting": "[30]", "value": 1}, {"measurement": "fold change (FC)", "setting": "[31]", "value": 1}, {"measurement": "fold change (FC)", "setting": "[32]", "value": 2.51}, {"measurement": "fold change (FC)", "setting": "[33]", "value": 5}]}
